Key:
M1 muscarinic receptors = target: T1, M1 muscarinic receptors (Homo sapiens, UniProt P11229); details: read-out: M1 Receptors Ki; M1 receptors expressed in A9 L cells
T1 sequence (P11229 1-460): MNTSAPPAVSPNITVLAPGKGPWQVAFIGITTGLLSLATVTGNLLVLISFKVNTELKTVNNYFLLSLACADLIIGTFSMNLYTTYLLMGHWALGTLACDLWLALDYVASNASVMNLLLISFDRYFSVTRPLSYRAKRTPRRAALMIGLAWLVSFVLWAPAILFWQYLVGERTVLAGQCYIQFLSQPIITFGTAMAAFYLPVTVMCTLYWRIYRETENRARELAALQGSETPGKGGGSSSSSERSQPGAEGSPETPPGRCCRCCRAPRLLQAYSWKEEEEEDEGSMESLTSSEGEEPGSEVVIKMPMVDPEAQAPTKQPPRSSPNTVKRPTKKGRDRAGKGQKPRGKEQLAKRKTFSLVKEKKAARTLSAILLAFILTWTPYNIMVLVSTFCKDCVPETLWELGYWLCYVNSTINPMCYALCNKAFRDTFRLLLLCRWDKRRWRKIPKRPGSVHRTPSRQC
Excerpt: (§1) Full dose-response curves were obtained for a few compounds.

[1] = target: T2, M1 muscarinic receptors expressed in A9 L cells (Homo sapiens, UniProt P11229); details: mean ± s.e.m.; for PI metabolism Smax: maximal stimulation from full dose-response curves; for EC50: read-out: PI metabolism EC50, full dose-response curves; for PI metabolism (at 100 μM): percentage stimulation above basal levels at 100 μM relative to the carbachol response (100%), two to five assays
T2 sequence (P11229 1-460): T1 sequence (P11229 1-460)
Excerpt: as §1

M2 receptors = target: T3, M2 receptors (Homo sapiens, UniProt P08172); assay: Receptor binding at M2 receptors expressed in A9 L cells (high and low affinity sites); details: share of high affinity sites
T3 construct: expressed in transfected cells; host or cells: A9 L cells
T3 sequence (P08172 1-466): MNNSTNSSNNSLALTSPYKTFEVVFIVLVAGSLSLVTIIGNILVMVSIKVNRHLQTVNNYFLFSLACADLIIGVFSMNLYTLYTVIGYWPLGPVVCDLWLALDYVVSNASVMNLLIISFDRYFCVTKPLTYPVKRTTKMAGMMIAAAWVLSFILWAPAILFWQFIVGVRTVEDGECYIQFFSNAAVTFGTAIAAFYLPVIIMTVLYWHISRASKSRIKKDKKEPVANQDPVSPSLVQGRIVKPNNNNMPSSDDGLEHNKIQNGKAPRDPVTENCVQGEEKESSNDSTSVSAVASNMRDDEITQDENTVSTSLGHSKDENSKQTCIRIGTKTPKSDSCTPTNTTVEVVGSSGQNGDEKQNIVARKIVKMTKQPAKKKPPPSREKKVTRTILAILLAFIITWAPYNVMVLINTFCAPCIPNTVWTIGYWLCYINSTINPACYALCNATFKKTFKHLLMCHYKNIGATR

SMILES | Ki (M1 muscarinic receptors) [nM] | PI metabolism Smax [1] [%] | EC50 [1] [nM] | PI metabolism (at 100 μM) [1] [%] | M2 Receptors % High affinity (M2 receptors) [%]
CN1CCC=C(c2nsnc2OCCOCCOCCOCCOc2nsnc2C2=CCCN(C)C2)C1 [(CH2)4O3, 2, 2′-bis-{[3-(1-methyl-1,2,5,6-tetrahydropyrid-3-yl)-1,2,5-thiadiazol-4-yloxy]ethyloxy}-diethylether] | 0.12 ± 0.057 | 250 ± 36 | 8.5 ± 1.2 | – | –
CN1CCC=C(c2nsnc2OCCCCCCOc2nsnc2C2=CCCN(C)C2)C1 [(CH2)6] | 0.61 ± 0.18 | – | – | 18 ± 0.06 | –
CN1CCC=C(c2nsnc2OCCCCCCCCOc2nsnc2C2=CCCN(C)C2)C1 [(CH2)8] | 0.19 ± 0.04 | – | – | 8.2 ± 1.4 | –
CN1CCC=C(c2nsnc2OCCCCCCCCCOc2nsnc2C2=CCCN(C)C2)C1 [(CH2)9] | – | 140 ± 34 | 720 ± 370 | 27 ± 6.2 | –
CN1CCC=C(c2nsnc2OCCCCCCCCCCOc2nsnc2C2=CCCN(C)C2)C1 [(CH2)10] | – | – | – | 76 ± 11 | –
CN1CCC=C(c2nsnc2OCCCCCCCCCCCCOc2nsnc2C2=CCCN(C)C2)C1 [(CH2)12, 1, 12-bis-[3-(1-methyl-1,2,5,6-tetrahydropyrid-3-yl)-1,2,5-thiadiazol-4-yloxy]-dodecane] | – | 190 ± 61 | 340 ± 190 | 84 ± 9.9 | –
CCCCCCOc1nsnc1C1=CCCN(C)C1 [Xanomeline] | – | – | – | – | 26 ± 8.5

— patent US6369081B1, “Muscarinic receptor agonists” (The University of Toledo, priority 1999, dated 2002)
